Structures are written as SMILES.

This experiment deals with T1, ΔF508 expressing CFBE410- lung cells (Homo sapiens, UniProt P13569, DEL508-508).
T1 construct: host or cells: CFBE41o- lung cells
The experiment can be described thus: CFTR folding and trafficking assay (immunoblot of band B and C glycoforms). The note with it: CFBE410- lung cells cultured in presence of compound versus DMSO; FIG. 1. The experiment is classed as cell-based. The procedure: CFTR transport assays. Either ΔF508 expressing CFBE410- lung cells were cultured in the presence or absence of reagent in 12 well Sarstedt dishes, harvested, lysed and the processing of CFTR from the band B to the band C glycoform detected by SDS-PAGE and immunoblotting using either monoclonal 3G11 or M3A7.
Quantitation of CFTR glycoforms: Immunoblot exposures were selected to allow visualization of CFTR recovery under identical protein loads in same SDS-PAGE for all treatments. Given the dynamic range, quantitation of the band B and C glycoforms was made by analysis of band intensities that were in the linear range. The x-ray films were exposed for increasing time and the different exposures were quantified using a FluroChemSP (Alpha Inotech) densitometer/software package. Where band B and C were quantified from different exposures, an internal reference was used to normalize the signal intensity. This method is described in more detail in Hutt et al. (2010).^16 Reduced histone deacetylase 7 activity restores function to misfolded CFTR in cystic fibrosis, Nature Chemical Biology (2010), 6(1), 25-33, the contents of which are expressly incorporated by reference herein.

T1 sequence (P13569 with tags, fused parts or gaps DEL508-508): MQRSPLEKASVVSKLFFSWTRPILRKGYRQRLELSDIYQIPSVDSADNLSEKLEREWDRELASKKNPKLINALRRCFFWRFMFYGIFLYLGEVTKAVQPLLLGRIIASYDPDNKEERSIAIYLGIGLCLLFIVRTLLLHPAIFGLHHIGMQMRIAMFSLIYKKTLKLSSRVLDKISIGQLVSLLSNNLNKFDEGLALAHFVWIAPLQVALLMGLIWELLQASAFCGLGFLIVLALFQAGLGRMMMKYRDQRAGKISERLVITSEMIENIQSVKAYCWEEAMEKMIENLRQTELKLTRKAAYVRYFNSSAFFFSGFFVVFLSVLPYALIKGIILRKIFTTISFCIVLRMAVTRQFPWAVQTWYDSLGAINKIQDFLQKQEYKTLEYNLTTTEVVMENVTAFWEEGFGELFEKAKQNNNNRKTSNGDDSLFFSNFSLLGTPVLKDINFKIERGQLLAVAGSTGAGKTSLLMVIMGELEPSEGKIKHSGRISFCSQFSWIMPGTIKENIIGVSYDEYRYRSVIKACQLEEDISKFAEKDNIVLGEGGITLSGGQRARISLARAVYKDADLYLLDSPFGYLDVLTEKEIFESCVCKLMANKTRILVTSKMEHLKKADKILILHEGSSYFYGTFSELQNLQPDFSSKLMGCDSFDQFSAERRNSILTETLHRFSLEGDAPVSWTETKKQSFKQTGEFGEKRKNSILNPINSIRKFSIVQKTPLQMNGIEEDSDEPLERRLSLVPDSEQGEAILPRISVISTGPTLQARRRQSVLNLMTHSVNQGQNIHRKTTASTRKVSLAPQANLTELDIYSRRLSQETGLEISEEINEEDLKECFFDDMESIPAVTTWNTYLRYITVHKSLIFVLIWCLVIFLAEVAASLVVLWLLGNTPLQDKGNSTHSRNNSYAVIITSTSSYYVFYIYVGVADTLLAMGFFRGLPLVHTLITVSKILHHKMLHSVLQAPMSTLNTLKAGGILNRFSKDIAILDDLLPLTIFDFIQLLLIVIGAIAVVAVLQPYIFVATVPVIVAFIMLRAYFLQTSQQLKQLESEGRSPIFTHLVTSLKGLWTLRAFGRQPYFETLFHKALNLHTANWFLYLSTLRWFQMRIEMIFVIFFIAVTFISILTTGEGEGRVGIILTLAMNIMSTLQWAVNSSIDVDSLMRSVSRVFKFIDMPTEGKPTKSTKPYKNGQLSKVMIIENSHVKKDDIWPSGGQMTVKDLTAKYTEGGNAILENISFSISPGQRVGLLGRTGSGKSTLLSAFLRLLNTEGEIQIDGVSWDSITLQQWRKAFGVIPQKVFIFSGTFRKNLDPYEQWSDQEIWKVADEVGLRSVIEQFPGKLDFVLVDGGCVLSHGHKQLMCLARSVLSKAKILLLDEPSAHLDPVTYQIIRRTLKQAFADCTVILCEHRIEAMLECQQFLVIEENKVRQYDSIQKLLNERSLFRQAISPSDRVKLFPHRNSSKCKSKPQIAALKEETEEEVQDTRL

Consider `CCN1CCc2c(sc(NC(C)=O)c2-c2nc3ccccc3s2)C1` [Example 2, N-(3-(benzo[d]thiazol-2-yl)-6-ethyl-4,5,6,7-tetrahydrothieno[2,3-c]pyridin-2-yl)acetamide], for which the “levels of CFTR band B and C by immunoblot” value is “enhanced levels of band B and C”.

The record behind these values is patent US20130072473A1, “COMPOUNDS FOR TREATING PROTEIN FOLDING DISORDERS” (PROTEOSTASIS THERAPEUTICS, INC., priority 2011, published 2013).
